Assay results taken from patent US6770299B1, “Lipid matrix-drug conjugates particle for controlled release of active ingredient” (PharmaSol GmbH, priority 1999, dated 2004).

Key:
[1] = system: HL 60 tumor cells (human myeloid leukemia cell line); assay: Differentiation of HL 60 tumor cells, NBT reduction; format: cell-based; details: HL 60 cells, free tributyrin dissolved in ethanol
Protocol: The effectiveness of tributyrin drug vehicles was measured in HL 60 tumor cells (human myeloid leukemia cell line). HL 60 cells are a sensitive indicator of the effect of tributyrin. It brings about a differentiation of the tumor cells to granulocyte-like cells. The latter have the property of reducing NBT (nitro-blue tetrazolium) to a blue dye (H. P. Koeffler et al. Blood 62 1 (983) 709-721). Tributyrin-compritol particles, consisting of equal parts of tributyrin and compritol (glycerine tribehenate) were prepared as in Example 1. The overall lipid concentration was 5%, the Poloxamer 188 concentration likewise 5%. The particle size was 147 nm (PCS diameter), the polydispersion index 0.321. The differentiation effect was compared with that of free tributyrin, dissolved in ethanol. […] An adequate quantity of tributyrin-compritol nanoparticle dispersion was, like the corresponding quantities of surfactant solution and pure compritol particle dispersion, added to HL 60 cells and the NBT reduction ascertained after 6 days' incubation time at 37° C. and 5% carbon dioxide content.

solid tumors = details: oral preparation, phase 1 study; cited from earlier work

CCCC(=O)OCC(COC(=O)CCC)OC(=O)CCC [tributyrin, 1,2,3 butyric acid glycerol ester]
effective 50% dosage (ED 50%), differentiation effect [1]: 130 µM | tumor regression (solid tumors): No significant tumor regression
